Residues, ends and D or L forms follow the SMILES beside them. *: point of attachment. Cbz = O=C(OCc1ccccc1)*
Tests used:
AID mRNA = settings: breast and ovarian tissue; cited from earlier work
AID-GFP = assay: Monitoring of AID stability: GFP signal (MFI) by flow cytometry in Ramos transfectants; format: cell-based, human; settings: for degradation of AID-GFP induced by Hsp90 inhibition, with proteasome inhibitor: stable transfectants of Ramos and DT40 cells, 10 microM MG132
Procedure: (§1) One of two experiments is shown. […] (D) AID stabilization by Hsp90 requires protein-protein interaction. […] Dead cells were excluded by propidium iodide staining. […] One of five independent experiments is shown. […] (D) and (F) are representative of three different experiments.
(A) AID degradation following Hsp90 inhibition is distinct from nuclear AID degradation. Ramos cells stably expressing AID-GFP were treated in triplicate with DMSO (Ctrl), 2 microM GA and/or 50 ng/mL leptomycin B (LMB) and the GFP signal was monitored over time by flow cytometry. The MFI normalized to t0=100% is plotted for each treatment. Dead cells were excluded by propidium iodide staining. One out of five identical experiments is shown. […] Ramos cells stably expressing AID-GFP pretreated with 100 ng/mL cycloheximide (CHX), a known protein synthesis inhibitor, for 1 h were treated and analyzed as in (A). One out of four identical experiments is shown. (C) Cytoplasmic destabilization of AID following Hsp90 inhibition. Analogous experiments to those in A and B were performed on Ramos cells stably expressing GFP-AID, which was previously shown to be unable to enter the nucleus (probably because the N-terminal fusion of GFP to AID masks the NLS)^28. One out of three identical experiments is shown. (D) AID degradation following Hsp90 inhibition requires the proteasome. Ramos cells stably expressing AID-GFP were treated with DMSO (Ctrl), 2 microM 17-MG and 10 microM MG132, a known specific proteasome inhibitor, as indicated. The GFP signal was monitored and plotted as above. One out of five experiments is shown. (E) Lower AID steady-state levels induced by Hsp90 inhibition can be blocked by proteasome inhibition in B cell lymphoma lines. Human and chicken B-cell lines (Ramos and DT40 respectively) were treated with 2 microM GA and 10 microM MG132 and subsequently harvested as indicated. The cells were lyzed, fractionated on SDS-PAGE and blotted. Blots were probed with anti-AID and anti-actin. One out of two experiments is shown for each cell line. (F) Hsp90 inhibition enhances AID polyubiquitination. […] Immunoprecipitates were analyzed by western blot using anti-GFP and anti-ubiquitin antibodies. […] In the lower panel, the relative amount of polyubiquitinated AID was quantified by densitometry using ImageQuant™ and the relative value of three independent experiments for each Ramos, HeLa and primary mouse B cells was plotted+SD. […]
(A) DT40 cells and (B) Hela aid−/− cells stably expressing AID-GFP were treated with the indicated combinations of DMSO (Ctrl), 2 microM GA, 50 ng/mL leptomycin B (LMB), a nuclear export inhibitor and/or 10 microM MG132, a proteasome inhibitor. The GFP signal was monitored by flow cytometry and the MFI normalized to the signal at t0 for each treatment. […]

DT40 cells = assay: DT40 cell growth under chronic Hsp90 inhibition; format: cell-based, chicken; settings: chronic low doses
Procedure: The median obtained for populations treated in each condition is indicated. […] Mean+SD values for the seven populations in each condition are plotted (middle panel). […] An identical experiment to (A) was performed except that the less toxic 17-AAG was used to inhibit Hsp90. […] The effect of the two 17-AAG concentrations used on DT40 growth was monitored by calculating the total number of cells in populations originating from 10^5 cells (left panel). The data plotted is the mean+SD of triplicate cultures for each condition. […] The quantitation of AID levels (middle panel) and cell growth curves (right panel) were done as in (B).

IgVlambda region = assay: Somatic hypermutation in DT40 cells by sequencing of IgVlambda; settings: 0.1 microM
Procedure: DT40 sIgM− cells were purified by FACS sorting and grown for about a week in 24-well plates until confluent before addition of Hsp90 inhibitors. This method was favored over using single cell clones because of the effect of Hsp90 inhibition on cell growth. […] Cell populations were sorted and grown as above and the sIgM phenotype analyzed by flow cytometry. The mutation load and pattern was determined by sequencing PCR-amplified Vlambda. AID levels in the populations were quantified by western blot after expansion.
This region was PCR-amplified from control and 17-MG-treated (0.1 microM) cell populations after 4 weeks of growth, the PCR product cloned and 10-11 clones for each population were sequenced.

Hsp90 = settings: cited from earlier work
[1] = test system: various cancer cell lines; settings: cited from earlier work
endogenous AID = assay: Endogenous AID levels by western blot in B-cell lymphoma lines (Ramos, CH12-F3, DT40); format: cell-based, human, mouse and chicken; settings: Ramos and DT40; 2 microM GA and 10 microM MG132
Procedure: as §1
(A) AID degradation following Hsp90 inhibition is distinct from nuclear AID degradation. Ramos cells stably expressing AID-GFP were treated in triplicate with DMSO (Ctrl), 2 microM GA and/or 50 ng/mL leptomycin B (LMB) and the GFP signal was monitored over time by flow cytometry. The MFI normalized to t0=100% is plotted for each treatment. Dead cells were excluded by propidium iodide staining. […] Ramos cells stably expressing AID-GFP pretreated with 100 ng/mL cycloheximide (CHX), a known protein synthesis inhibitor, for 1 h were treated and analyzed as in (A). […] The GFP signal was monitored and plotted as above. […] Immunoprecipitates were analyzed by western blot using anti-GFP and anti-ubiquitin antibodies. […] In the lower panel, the relative amount of polyubiquitinated AID was quantified by densitometry using ImageQuant™ and the relative value of three independent experiments for each Ramos, HeLa and primary mouse B cells was plotted+SD.
In cell lines stably expressing GFP-tagged AID or AID mutants, the GFP fluorescence signal was measured by flow cytometry at various time points after the indicated treatments. […]

## estrogen
AID mRNA
  increase in AID mRNA production: > 20 fold

## CCC(=C/[C@H](C)C/C=C/C(C)=C/[C@@H](C)C(=O)[C@@H](C)[C@H](O)[C@@H](C)C/C(C)=C/C(=O)O)/C=C/[C@@H]1OC(=O)C=C[C@@H]1C [LMB, leptomycin B]
AID-GFP; Ramos expressing GFP-AID
  stability of GFP-AID (unable to enter the nucleus): not destabilized

## C=CCNC1=C2C[C@@H](C)C[C@H](OC)[C@H](O)[C@@H](C)/C=C(\C)[C@H](OC(N)=O)[C@@H](OC)/C=C\C=C(/C)C(=O)NC(=CC1=O)C2=O [17-AAG, 17-(Allylamino)-17-demethoxygeldanamycin]
DT40 cells
  cell growth: minimal impact on cell growth
IgVlambda region; 4 weeks
  decrease of mutation frequency versus controls: ~5 fold
IgVlambda region; 4 weeks of growth, 10-11 clones per population
  mutation frequency of the IgVlambda region: 1.11×10^−3 mutations/base pair

## COC1=C2C[C@@H](C)C[C@H](OC)[C@H](O)[C@@H](C)/C=C(\C)[C@H](OC(N)=O)[C@@H](OC)/C=C\C=C(/C)C(=O)NC(=CC1=O)C2=O [GA, geldanamycin]
DT40 cells
  cell growth: delayed cell growth

## C[C@@H]1C[C@@H]([C@H](O)CC2CC(=O)NC(=O)C2)C(=O)[C@@H](C)C1 [CHX, cycloheximide]
AID-GFP; Ramos, CHX alone
  decay of AID-GFP after protein synthesis inhibition: expected decay

## O=C1OCC/C=C/CC/C=C/C(=N/OCC(=O)N2CCCCC2)Cc2c(Cl)c(O)cc(O)c21 [NXD30001]
Hsp90
  Hsp90 binding affinity compared to 17-MG and 17-DMAG: enhanced
[1]
  potency in inhibiting cell growth in vitro compared to 17-MG and 17-DMAG: enhanced

## CC(C)C[C@@H](C=O)NC(=O)[C@H](CC(C)C)NC(=O)[C@H](CC(C)C)NC(=O)OCc1ccccc1 [MG132] (Cbz-Leu-Leu-Leu-aldehyde)
Endogenous AID
  degradation of endogenous AID induced by Hsp90 inhibition, with proteasome inhibitor: prevented the degradation of AID
AID-GFP
  degradation of AID-GFP induced by Hsp90 inhibition, with proteasome inhibitor: prevented the degradation of AID

## CC(=O)N[C@@H](CSC(=O)[C@]1([C@@H](O)C(C)C)NC(=O)[C@H](C)[C@@H]1O)C(=O)O [lactacystin]
AID-GFP
  degradation of AID-GFP induced by Hsp90 inhibition, with proteasome inhibitor: Identical results

Reference: patent publication US20110237560A1, “MODULATING AND/OR DETECTING ACTIVATION INDUCED DEAMINASE AND METHODS OF USE THEREOF” (priority 2010, published 2011)
